Assay results published in patent US5905074A, “Vitamin D derivative” (Hoffmann-La Roche Inc., priority 1995, dated 1999).

What was measured:
HL-60 cells = test: HL-60 differentiation (NBT reduction, oxidative burst potential); assay type: cell-based; details: Homo sapiens, HL-60, 72 h; 3 days; 50% of maximal differentiation achieved with 100-1000 nM calcitriol
Method: The induction of differentiation of HL-60 cells was assayed by measuring their oxidative burst potential via the reduction of NBT (Nitro-bluetetraolium) according to a modified procedure of E. Pick et al. in J. Reticul.
30,000 cells/90 μl of RPMI/FCS were seeded into flat-bottomed microtiter wells. Immediately after seeding, 10 μl of vitamin D derivatives diluted in complete medium (RPMI/FCS) were added to yield final concentrations between 10^-11 and 10^-6 M (starting from 1 mM stock solutions in ethanol which were stored at -20° and protected from light). After 3 days, the medium was removed with a multichannel pipette and replaced with 100 μl of NBT solution (1 mg/ml in Dulbecco's PBS with 200 nM phorbol myristate acetate (PMA)). Following an incubation of 1 hour at 37° C. the NBT solution was removed and 100 μl of 10% SDS in 0.01N HCl was added. After further incubation at 37° C. for 6 hours (or more), the amount of the reduced NBT was quantified photometrically at 540 nm using an automated plate reader. The mean of 3 wells was calculated.
Values were expressed as percent of maximal differentiation achieved with 100-1000 nM calcitriol in the same experiment.

[1] = Calcium liability (tolerance test in mice); details: mouse, in vivo, sc; daily subcutaneous, 4 consecutive days; dose resulting in zero weight gain during 5 day treatment period; read-out: highest tolerated dose (mice)
Text: This routine test gives a global picture of calcemic liability. Profound changes in calcium homeostasis strongly affect the weight development of the animals. This parameter was used as a primary test for tolerance.
Mice (25-30 g body weight) received daily subcutaneous administrations of the vitamin D derivative for 4 consecutive days. Body weight was registered just before and at the end of a […] treatment period. The "highest tolerated dose" (HTD) in mice is the dose which results in zero weight gain during this treatment period.

human VDR = biological target: T1, human VDR (Homo sapiens, UniProt P11473); test: VDR activation (transcription activation assay, luciferase reporter); assay type: cell-based; details: half-maximal induction of luciferase activity
T1 construct: expressed in transfected cells; host or cells: COS cells or CV-1 cells (VDR expressed in pSG5)
T1 sequence (P11473 1-427): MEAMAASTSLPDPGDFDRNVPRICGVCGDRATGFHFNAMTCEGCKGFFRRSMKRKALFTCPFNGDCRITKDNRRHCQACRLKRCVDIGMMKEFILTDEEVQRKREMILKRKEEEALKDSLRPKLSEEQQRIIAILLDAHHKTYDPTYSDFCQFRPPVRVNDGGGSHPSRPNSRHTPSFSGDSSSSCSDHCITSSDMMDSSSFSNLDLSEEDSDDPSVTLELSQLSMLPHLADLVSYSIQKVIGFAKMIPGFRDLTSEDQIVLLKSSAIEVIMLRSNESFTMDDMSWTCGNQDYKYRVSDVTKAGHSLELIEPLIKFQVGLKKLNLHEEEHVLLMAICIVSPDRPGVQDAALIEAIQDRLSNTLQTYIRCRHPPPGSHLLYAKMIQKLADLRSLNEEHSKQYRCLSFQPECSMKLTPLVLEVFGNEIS
Text: In order to measure the activation of the vitamin D receptor (VDR) by vitamin D analogs in cells a transcription activation assay was used. COS cells or CV-1 cells were cotransfected with the human VDR (expressed in pSG5) and a reporter gene containing three response elements (VDRE3) from the rat osteocalcine gene, the thymidine kinase basal promoter, and the luciferase reporter gene.

| SMILES | EC50 (HL-60 cells) | MTD [1] | EC50 (human VDR; COS cells) | EC50 (human VDR; CV-1 cells) |
| --- | --- | --- | --- | --- |
| C=C1/C(=C\C=C2/CCC[C@]3(C)[C@@H]([C@H](C)CCCC(C)(C)O)CC[C@@H]23)C[C@@H](O)C[C@@H]1O [Calcitriol, reference compound] | 5 nM | – | – | – |
| C=C1/C(=C\C=C2/CCC[C@]3(C)[C@@H]([C@H](C)CCCC(C)(C)O)CCC[C@@H]23)C[C@@H](O)C[C@@H]1O [Compound of formula I, (1R,3S)-5-[(Z)-2-[(E)-(4aR,5R,8aR)-5-[(R)-5-Hydroxy-1,5-dimethyl-hexyl]-4a-methyl-octahydro-naphtalen-1-ylidene]-ethylidene]-4-methylene-cyclohexane-1,3-diol] | 0.37 nM | 0.6 µg/kg | 1.2 nM | 0.04 nM |
